The test system of one assay is sodium monoiodoacetate-induced model rats. Description: Analgesic effect on sodium monoiodoacetate-induced model rats. To be noted: MIA-induced model rats; day 24; 3 mg/kg subcutaneously 1 hour before the measurement; positive control drug. The class given is in vivo, rat.
As to `CN1CC[C@]23c4c5ccc(O)c4O[C@H]2[C@@H](O)C=C[C@H]3[C@H]1C5` [Morphine, morphine, reference compound], the “Percent improvement (%)” value was 54%.

The same assay, now with this note: MIA-induced model rats; day 24; 10 mg/kg subcutaneously 1 hour before the measurement; positive control drug.
Turning to `COc1cccc(C2(O)CCCCC2CN(C)C)c1` (centres unmarked) [Tramadol, tramadol, reference compound], the “Percent improvement (%)” value is reported as 43%.

Still in this assay, the particulars now being: MIA-induced model rats; right hind limb weight load ratio, day 24; test substance orally twice a day from day 14; experiment with morphine as positive control (Table 8).
`Nc1ncc(F)cc1-c1ccc(Oc2ncc(NC(=O)Nc3cc(C(F)(F)F)ccc3-c3cccnc3)cn2)cc1` [Example 14-6, 1-(2-(4-(2-amino-5-fluoropyridin-3-yl)phenoxy)pyrimidin-5-yl)-3-(2-(pyridin-3-yl)-5-(trifluoromethyl)phenyl)urea]: the “Percent improvement (%)” value amounted to 53%.

For `Nc1ncc(C(F)(F)F)cc1-c1ccc(Oc2ncc(NC(=O)Nc3cc(C(F)(F)F)ccc3-n3ccc(C(F)(F)F)n3)cn2)cc1` [Example 15-52, 1-(2-{4-[2-amino-5-(trifluoromethyl)-3-pyridinyl]phenoxy}-5-pyrimidinyl)-3-{5-(trifluoromethyl)-2-[3-(trifluoromethyl)-1H-pyrazol-1-yl]phenyl}urea], the “Percent improvement (%)” value was 60%.

Take `Nc1ncc(Cl)cc1-c1ccc(Oc2ncc(NC(=O)Nc3cc(C(F)(F)F)ccc3-c3ccccc3)cn2)cc1` [Example 15-55, 1-{2-[4-(2-amino-5-chloro-3-pyridinyl)phenoxy]-5-pyrimidinyl}-3-[4-(trifluoromethyl)-2-biphenylyl]urea]: the “Percent improvement (%)” value came out at 62%.

For `Nc1ncc(Cl)cc1-c1ccc(Oc2ncc(NC(=O)Nc3cc(C(F)(F)F)ccc3-n3cc(Cl)cn3)cn2)cc1` [Example 15-63, 1-{2-[4-(2-amino-5-chloro-3-pyridinyl)phenoxy]-5-pyrimidinyl}-3-[2-(4-chloro-1H-pyrazol-1-yl)-5-(trifluoromethyl)phenyl]urea], the “Percent improvement (%)” value was 53%.

For `Nc1ncc(Cl)cc1-c1ccc(Oc2ncc(NC(=O)Nc3ccc(C(F)(F)F)cc3C(F)(F)F)cn2)cc1` [Example 15-77, 1-{2-[4-(2-amino-5-chloro-3-pyridinyl)phenoxy]-5-pyrimidinyl}-3-[2,4-bis(trifluoromethyl)phenyl]urea], the “Percent improvement (%)” value is reported as 55%.

Turning to `Nc1ncc(C(F)(F)F)cc1-c1ccc(Oc2ncc(NC(=O)Nc3cc(C(F)(F)F)ccc3-n3cc(Cl)cn3)cn2)cc1` [Example 15-87, 1-(2-{4-[2-amino-5-(trifluoromethyl)-3-pyridinyl]phenoxy}-5-pyrimidinyl)-3-[2-(4-chloro-1H-pyrazol-1-yl)-5-(trifluoromethyl)phenyl]urea], the “Percent improvement (%)” value was 57%.

Take `CS(=O)(=O)c1ccc(C(F)(F)F)cc1NC(=O)Nc1cnc(Oc2ccc(-c3cc(C(F)(F)F)cnc3N)cc2)nc1` [Example 15-98, 1-(2-{4-[2-amino-5-(trifluoromethyl)-3-pyridinyl]phenoxy}-5-pyrimidinyl)-3-[2-(methylsulfonyl)-5-(trifluoromethyl)phenyl]urea]: the “Percent improvement (%)” value is 57%.

Regarding `CS(=O)(=O)c1ccc(C(F)(F)F)cc1NC(=O)Nc1cnc(Oc2ccc(-c3cc(Cl)cnc3N)cc2)nc1` [Example 15-104, 1-{2-[4-(2-amino-5-chloro-3-pyridinyl)phenoxy]-5-pyrimidinyl}-3-[2-(methylsulfonyl)-5-(trifluoromethyl)phenyl]urea], the “Percent improvement (%)” value is given as 54%.

On to `CN(C)c1ccn2ncc(-c3ccc(Oc4ncc(NC(=O)Nc5cc(C(F)(F)F)ccc5-c5cccnc5)cn4)cc3)c2n1` [Example 21-37, 1-(2-{4-[5-(dimethylamino)pyrazolo[1,5-a]pyrimidin-3-yl]phenoxy}-5-pyrimidinyl)-3-[2-(3-pyridinyl)-5-(trifluoromethyl)phenyl]urea], for which the “Percent improvement (%)” value was 67%.

On to `CN(C)c1ccn2ncc(-c3ccc(Oc4ncc(NC(=O)Nc5cc(C(F)(F)F)ccc5-c5ccnn5C)cn4)cc3)c2n1` [Example 21-51, 1-(2-{4-[5-(dimethylamino)pyrazolo[1,5-a]pyrimidin-3-yl]phenoxy}-5-pyrimidinyl)-3-[2-(1-methyl-1H-pyrazol-5-yl)-5-(trifluoromethyl)phenyl]urea], for which the “Percent improvement (%)” value is 68%.

Consider `CN(C)c1ccn2ncc(-c3ccc(Oc4ncc(NC(=O)Nc5cc(C(F)(F)F)ccc5-c5ccccc5)cn4)cc3)c2n1` [Example 21-70, 1-(2-{4-[5-(dimethylamino)pyrazolo[1,5-a]pyrimidin-3-yl]phenoxy}-5-pyrimidinyl)-3-[4-(trifluoromethyl)-2-biphenylyl]urea], for which the “Percent improvement (%)” value worked out at 61%.

On to `Cc1cccc(-c2ccc(C(F)(F)F)cc2NC(=O)Nc2cnc(Oc3ccc(-c4cnn5ccc(N(C)C)nc45)cc3)nc2)c1` [Example 21-73, 1-(2-{4-[5-(dimethylamino)pyrazolo[1,5-a]pyrimidin-3-yl]phenoxy}-5-pyrimidinyl)-3-[3′-methyl-4-(trifluoromethyl)-2-biphenylyl]urea], for which the “Percent improvement (%)” value is 62%.

Still in this assay, the particulars now being: MIA-induced model rats; right hind limb weight load ratio, day 24; test substance orally twice a day from day 14; experiment with tramadol as positive control (Table 7).
Take `Nc1ncc(Cl)cc1-c1ccc(Oc2ncc(NC(=O)Nc3cc(C(F)(F)F)ccc3-n3cccn3)cn2)cc1` [Example 7, 1-(2-(1H-pyrazol-1-yl)-5-(trifluoromethyl)phenyl)-3-(2-(4-(2-amino-5-chloropyridin-3-yl)phenoxy)pyrimidin-5-yl) urea]: the “Percent improvement (%)” value is on record as 61%.

With `Cc1cn(-c2ccc(C(F)(F)F)cc2NC(=O)Nc2cnc(Oc3ccc(-c4cc(Cl)cnc4N)cc3)nc2)nn1` [Example 8-1, 1-(2-(4-(2-amino-5-chloropyridin-3-yl)phenoxy)pyrimidin-5-yl)-3-(2-(4-methyl-1H-1,2,3-triazol-1-yl)-5-(trifluoromethyl)phenyl)urea], the “Percent improvement (%)” value is on record as 60%.

`Nc1ncc(F)cc1-c1ccc(Oc2ncc(NC(=O)Nc3cc(C(F)(F)F)ccc3-n3ccnn3)cn2)cc1` [Example 14-5, 1-(2-(1H-1,2,3-triazol-1-yl)-5-(trifluoromethyl)phenyl)-3-(2-(4-(2-amino-5-fluoropyridin-3-yl)phenoxy)pyrimidin-5-yl)urea]: the “Percent improvement (%)” value turned out to be 47%.

`Nc1ncc(Cl)cc1-c1ccc(Oc2ncc(NC(=O)Nc3ccc(C(F)(F)F)cc3Cl)cn2)cc1` [Example 15-6, 1-(2-(4-(2-amino-5-chloropyridin-3-yl)phenoxy)pyrimidin-5-yl)-3-(2-chloro-4-(trifluoromethyl)phenyl)urea]: the “Percent improvement (%)” value is given as 51%.

Turning to `COc1ccn2ncc(-c3ccc(Oc4ncc(NC(=O)Nc5cc(C(F)(F)F)ccc5-c5cccnc5)cn4)cc3)c2n1` [Example 21-9, 1-(2-(4-(5-methoxypyrazolo[1,5-a]pyrimidin-3-yl)phenoxy)pyrimidin-5-yl)-3-(2-(pyridin-3-yl)-5-(trifluoromethyl)phenyl)urea], the “Percent improvement (%)” value is on record as 64%.

In the case of `O=C(Nc1cnc(Oc2ccc(-c3cnn4cccnc34)cc2)nc1)Nc1cc(C(F)(F)F)ccc1-c1cccnc1` [Example 21-13, l-(2-(4-(pyrazolo[1,5-a]pyrimidin-3-yl)phenoxy)pyrimidin-5-yl)-3-(2-(pyridin-3-yl)-5-(trifluoromethyl)phenyl)urea], the “Percent improvement (%)” value is on record as 66%.
